Read-outs that look alike come from different tables or passages of the source.
Tests used:
1-methylhydantoinase [1] = assay: Michaelis constants of 1-methylhydantoinase; format: biochemical, Arthrobacter species DSM 2563; conditions: pH 7.8
1-methylhydantoinase [2] = assay: Activators of 1-methylhydantoinase; format: biochemical, Arthrobacter species DSM 2563
Method: Relative activity in % (30 mmol/liter ammonium sulphate (AS)=100)
(§1) The activity determination was carried out as follows: […]
(§2) 2. 1-Methylhydantoin solution: 10 mmol/liter
(§3) Wavelength 546 mn; T=25° C.; light path 1 cm.; final volume 2.03 ml.; extinction coefficient of the dye formed=13 cm^2 /μmol. […]
(§4) ^++ For the investigation according to Points 2, 3b, 4, 5 and 6 given
(§5) 4. Calculation: [formula] Remark: ΔA/min. must not to be more than 0.66; otherwise dilute sample. Lag phase about 5 minutes.

1-methylhydantoinase [3] = assay: Nucleotide specificity of 1-methylhydantoinase (via carbamoylsarcosinamidohydrolase + sarcosine oxidase); format: biochemical, Arthrobacter species DSM 2563; conditions: nucleotide 4 mmol/liter
Method: Relative activity in % (ATP=100) determined via the reaction sequence catalyzed by carbamoylsarcosinamidohydrolase+sarcosine oxidase:
as §1, §2, §3, §4, §5

1-methylhydantoinase [4] = assay: Inhibitors of 1-methylhydantoinase; format: biochemical, Arthrobacter species DSM 2563; conditions: for relative activity %: 7.5 mM Mg++ in the reaction mixture
Method: as §1, §2, §3, §4, §5

1-methylhydantoinase [5] = assay: Metal ion dependence of 1-methylhydantoinase activity; format: biochemical, Arthrobacter species DSM 2563
Method: Relative activity in % (5 mmol/liter magnesium chloride=100)
as §1
2. 1-Methylhydantoin solution: 10 mmol/liter […]
as §4, §5

1-methylhydantoinase [6] = assay: Enzymatic colour test for the determination of creatinine; format: biochemical
Source text: 1. Enzymatic colour tetst for the determination of 1-methylhydantoin (1-methylhydantoinase/N-carbamoylsarcosinamidohydrolase/sarcosine oxidase reaction with peroxidase/4-aminoantipyrine/2,4,6-tribromo-3-hydroxybenzoicacid colour indicator system) […]
Corresponding to reagent 1.1. of Example 5, however with the addition of creatinine iminohydrolase, 2 U/ml. (final concentration).
Corresponding to Point 1.2 of Example 5 but, as sample, there are used aqueous creatinine solutions (0.0877 to 1.754 mmol/liter) and the incubation period for P and RL is prolonged to 20 minutes.

[7] = activator substance 30 mmol/liter

With `CN1CC(=O)NC1=O` [1-methylhydantoin] as the compound, how does the Km (1-methylhydantoinase [1]; 0.15 mol/liter TES, via ATP, read-out: Km 1-methylhydantoin) read?
The Km was 20 µM.

Which results are given for `N.N.O=S(=O)(O)O` [(NH4)2 SO4, ammonium sulphate]?
Relative activity in % (30 mmol/liter ammonium sulphate (AS)=100) (1-methylhydantoinase [2]; [7]): 100%; Relative activity in % (30 mmol/liter ammonium sulphate (AS)=100) (1-methylhydantoinase [2]; activator substance 10 mol/liter): 95%

With `Nc1ncnc2c1ncn2[C@@H]1O[C@H](COP(=O)(O)OP(=O)(O)O)[C@@H](O)[C@H]1O` [ADP] as the compound, how does the “Relative activity in % (ATP=100)” value (1-methylhydantoinase [3]) read?
The value was 1%.

Which “Relative activity in % (ATP=100)” value (1-methylhydantoinase [3]) does the source give for `Nc1ncnc2c1ncn2[C@@H]1O[C@H](COP(=O)(O)O)[C@@H](O)[C@H]1O` [AMP] here?
Its value is 0%.

How did the “Relative activity in % (ATP=100)” value (1-methylhydantoinase [3]) turn out when `Nc1ncnc2c1ncn2[C@@H]1O[C@H](COP(=O)(O)OP(=O)(O)OP(=O)(O)O)[C@@H](O)[C@H]1O` [ATP, adenosine-5'-triphosphate] was run?
Its value is 100%.

And the Km (1-methylhydantoinase [1]; TES 0.15 mol/liter, via sarcosine, read-out: Km ATP)?
Its Km is 800 µM.

How did the “Relative activity in % (ATP=100)” value (1-methylhydantoinase [3]) turn out when `Nc1ccn([C@@H]2O[C@H](COP(=O)(O)OP(=O)(O)OP(=O)(O)O)[C@@H](O)[C@H]2O)c(=O)n1` [CTP] was run?
Its value is 1.5%.

What does the source list for `O=C(O)CN(CCN(CC(=O)O)CC(=O)O)CC(=O)O` [EDTA]?
Inhibition (in words) (1-methylhydantoinase [4]): Significant inhibition; relative activity % (1-methylhydantoinase [4]; EDTA 5 mol/liter (so in the source)): 100%; relative activity % (1-methylhydantoinase [4]; EDTA 10 mol/liter (so in the source)): 42%; relative activity % (1-methylhydantoinase [4]; EDTA 50 mol/liter (so in the source)): 2%

How did the “Relative activity in % (ATP=100)” value (1-methylhydantoinase [3]) turn out when `Nc1nc2c(ncn2[C@@H]2O[C@H](COP(=O)(O)OP(=O)(O)OP(=O)(O)O)[C@@H](O)[C@H]2O)c(=O)[nH]1` [GTP] was run?
The value was 7%.

Which “Relative activity in % (30 mmol/liter ammonium sulphate (AS)=100)” value (1-methylhydantoinase [2]; [7]) does the source give for `O=S(=O)([O-])[O-].[K+].[K+]` [K2 SO4] here?
The value was 59%.

Which “Relative activity in % (30 mmol/liter ammonium sulphate (AS)=100)” value (1-methylhydantoinase [2]; [7]) does the source give for `O=S(=O)([O-])[O-].[Li+].[Li+]` [Li2 SO4] here?
Its value is 40%.

How did the “Relative activity in % (5 mmol/liter magnesium chloride=100)” value (1-methylhydantoinase [5]; metal salt 1 mmol/liter) turn out when `[Cl-].[Cl-].[Mg+2]` [MgCl2, magnesium chloride] was run?
Its value is 83%.

What about the “Relative activity in % (5 mmol/liter magnesium chloride=100)” value (1-methylhydantoinase [5]; metal salt 5 mmol/liter) of the same compound?
The value was 100%.

What about the “Relative activity in % (5 mmol/liter magnesium chloride=100)” value (1-methylhydantoinase [5]; metal salt 10 mmol/liter) of the same compound?
The value was 98%.

For `[Cl][Mn][Cl]` [MnCl2], which “Relative activity in % (5 mmol/liter magnesium chloride=100)” value (1-methylhydantoinase [5]; metal salt 5 mmol/liter) is on record?
The value was 60%.

How did the “Relative activity in % (30 mmol/liter ammonium sulphate (AS)=100)” value (1-methylhydantoinase [2]; [7]) turn out when `Cl.N` [NH4 Cl, ammonium chloride] was run?
The value was 91%.

For `CC(=O)O` [NH4 acetate], which “Relative activity in % (30 mmol/liter ammonium sulphate (AS)=100)” value (1-methylhydantoinase [2]; [7]) is on record?
Its value is 98%.

With `N` [NH4^+] as the compound, how does the “Activation (in words)” value (1-methylhydantoinase [2]) read?
The value was “Significant activation”.

For `O=S(=O)([O-])[O-].[Na+].[Na+]` [Na2 SO4], which “Relative activity in % (30 mmol/liter ammonium sulphate (AS)=100)” value (1-methylhydantoinase [2]; [7]) is on record?
Its value is 39%.

With `O=P([O-])([O-])OP(=O)([O-])OP(=O)([O-])[O-].[Na+].[Na+].[Na+].[Na+].[Na+]` [Na tripolyphosphate] as the compound, how does the “Relative activity in % (ATP=100)” value (1-methylhydantoinase [3]) read?
The value was 0%.

With `[Cl-].[Na+]` [NaCl] as the compound, how does the “Relative activity in % (30 mmol/liter ammonium sulphate (AS)=100)” value (1-methylhydantoinase [2]; [7]) read?
Its value is 41%.

Which results are given for `[F-].[Na+]` [NaF]?
Inhibition (in words) (1-methylhydantoinase [4]): Significant inhibition; inhibition (1-methylhydantoinase [4]; 1×10^-2 mol/liter): 100%

For `O=C(O)O` [NaHCO3], which “Relative activity in % (30 mmol/liter ammonium sulphate (AS)=100)” value (1-methylhydantoinase [2]; [7]) is on record?
The value was 40%.

Which “Relative activity in % (ATP=100)” value (1-methylhydantoinase [3]) does the source give for `O=P(O)(O)OP(=O)(O)O` [PPi, pyrophosphate] here?
The value was 0%.

Which “Relative activity in % (ATP=100)” value (1-methylhydantoinase [3]) does the source give for `Cc1cn([C@H]2C[C@H](O)[C@@H](COP(=O)(O)OP(=O)(O)OP(=O)(O)O)O2)c(=O)[nH]c1=O` [TTP] here?
The value was 0%.

For `O=c1ccn([C@@H]2O[C@H](COP(=O)(O)OP(=O)(O)OP(=O)(O)O)[C@@H](O)[C@H]2O)c(=O)[nH]1` [UTP], which “Relative activity in % (ATP=100)” value (1-methylhydantoinase [3]) is on record?
The value was 0%.

Which “Relative activity in % (5 mmol/liter magnesium chloride=100)” value (1-methylhydantoinase [5]; metal salt 5 mmol/liter) does the source give for `[Cl-].[Cl-].[Zn+2]` [ZnCl2] here?
Its value is 24%.

With `CN(CC(=O)O)C(=N)N` [creatine] as the compound, how does the colour reaction (1-methylhydantoinase [6]; creatine solution (884 μmol/liter) as sample instead of creatinine, test batch 8.2) read?
The colour reaction was “no colour reaction”.

`CN1CC(=O)NC1=N` [creatinine] was tested. Which colour reaction (1-methylhydantoinase [6]; creatinine iminohydrolase omitted from Reagent 8.1) did it give?
The colour reaction was “no colour reaction”.

How did the “Relative activity in % (ATP=100)” value (1-methylhydantoinase [3]) turn out when Na hexametaphosphate was run?
Its value is 0%.

From patent publication US4816393A, “Nucleoside triphosphate-dependent 1-methylhydantoinase, a process for obtaining it and the use thereof” (Boehringer Mannheim GmbH, priority 1984, dated 1989)
